Test results reported in patent US20050075375A1 (priority 2003, published 2005).

Each compound was assayed on monocistronic NK5.1 HCV replicon in Huh7 cells (assay: HCV replicon assay, monocistronic replicon cell line). Settings: Hepatitis C virus, Huh-7, 72 h; table T3 (compounds 471-640); monocistronic replicon in Huh7 cells, 3 days incubation, HCV RNA/GAPDH RNA by TaqMan RT-PCR; read-out: Mono EC50 Median.
Assay type: cell-based, hepatitis C virus
Procedure, shortened: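 Huh7 cells carrying the monocistronic NK5.1 replicon, seeded 24 h before dosing, were exposed to six-point half-log compound series (0.6% DMSO) for 3 days at 37 °C. Replicon RNA was quantified by TaqMan RT-PCR, normalised to GAPDH and compared with DMSO controls to derive EC50.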
With `CC(C)(C)c1ccc(O)c(-c2nc(-c3ccc(C(F)(F)F)cn3)n[nH]2)c1` [Compound 507, 4-tert-Butyl-2-[5-(5-trifluoromethyl-pyridin-2-yl)-2H-[1,2,4]triazol-3-yl]-phenol] the EC50 was > 19 µM.
In the case of `O=[N+]([O-])c1ccc(O)c(-c2nc(-c3ccc(C(F)(F)F)cn3)n[nH]2)c1` [Compound 508, 4-Nitro-2-[5-(5-trifluoromethyl-pyridin-2-yl)-2H-[1,2,4]triazol-3-yl]-phenol], the EC50 is reported as > 19 µM.
In the case of `Oc1ccc(F)cc1-c1nc(-c2ccc(C(F)(F)F)cn2)n[nH]1` [Compound 509, 4-Fluoro-2-[5-(5-trifluoromethyl-pyridin-2-yl)-2H-[1,2,4]triazol-3-yl]-phenol], the EC50 is reported as > 19 µM.
`COc1ccc(O)c(-c2nc(-c3ccc(C(F)(F)F)cn3)n[nH]2)c1` [Compound 510, 4-Methoxy-2-[5-(5-trifluoromethyl-pyridin-2-yl)-2H-[1,2,4]triazol-3-yl]-phenol] was tested, and the EC50 was > 19 µM.
In the case of `Oc1ccc(Cl)cc1-c1nc(-c2ccc(C(F)(F)F)cn2)n[nH]1` [Compound 511, 4-Chloro-2-[5-(5-trifluoromethyl-pyridin-2-yl)-2H-[1,2,4]triazol-3-yl]-phenol], the EC50 is reported as > 19 µM.
`CCOc1cccc(-c2nc(-c3ccc(C(F)(F)F)cn3)n[nH]2)c1O` [Compound 512, 6-Ethoxy-2-[5-(5-trifluoromethyl-pyridin-2-yl)-2H-[1,2,4]triazol-3-yl]-phenol] was tested, and the EC50 was > 19 µM.
With `Oc1cc(OCc2ccccc2)ccc1-c1nc(-c2ccc(C(F)(F)F)cn2)n[nH]1` [Compound 513, 5-Benzyloxy-2-[5-(5-trifluoromethyl-pyridin-2-yl)-2H-[1,2,4]triazol-3-yl]-phenol] the EC50 was > 19 µM.
With `Fc1cc(-c2nc(-c3ccc(C(F)(F)F)cn3)n[nH]2)ccc1-c1ccccc1` [Compound 514, 2-[5-(2-Fluoro-biphenyl-4-yl)-1H-[1,2,4]triazol-3-yl]-5-trifluoromethyl-pyridine] the EC50 was > 19 µM.
In the case of `Oc1ccc(Br)cc1-c1nc(-c2ccc(C(F)(F)F)cn2)n[nH]1` [Compound 515, 4-Bromo-2-[5-(5-trifluoromethyl-pyridin-2-yl)-2H-[1,2,4]triazol-3-yl]-phenol], the EC50 is reported as > 19 µM.
`Cc1ccc(O)c(-c2nc(-c3ccc(C(F)(F)F)cn3)n[nH]2)c1` [Compound 516, 4-Methyl-2-[5-(5-trifluoromethyl-pyridin-2-yl)-2H-[1,2,4]triazol-3-yl]-phenol] was tested, and the EC50 was > 19 µM.
With `COc1ccc(-c2nc(-c3ccc(C(F)(F)F)cn3)n[nH]2)c(O)c1` [Compound 517, 5-Methoxy-2-[5-(5-trifluoromethyl-pyridin-2-yl)-2H-[1,2,4]triazol-3-yl]-phenol] the EC50 was > 19 µM.
In the case of `Oc1ccccc1-c1nc(-c2ccc(C(F)(F)F)cn2)n[nH]1` [Compound 518, 2-[5-(5-trifluoromethyl-pyridin-2-yl)-2H-[1,2,4]triazol-3-yl]-phenol], the EC50 is reported as > 19 µM.
`COc1cccc(-c2nc(-c3ccc(C(F)(F)F)cn3)n[nH]2)c1O` [Compound 519, 6-Methoxy-2-[5-(5-trifluoromethyl-pyridin-2-yl)-2H-[1,2,4]triazol-3-yl]-phenol] was tested, and the EC50 was > 19 µM.
For `O=[N+]([O-])c1cccc(-c2nc(-c3ccc(C(F)(F)F)cn3)n[nH]2)c1` [Compound 520, 2-[5-(3-Nitro-phenyl)-1H-[1,2,4]triazol-3-yl]-5-trifluoromethyl-pyridine], the EC50 was > 19 µM.
In the case of `CCN(CC)c1ccc(-c2nc(-c3ccc(C(F)(F)F)cn3)n[nH]2)c(O)c1` [Compound 521, 5-Diethylamino-2-[5-(5-trifluoromethyl-pyridin-2-yl)-2H-[1,2,4]triazol-3-yl]-phenol], the EC50 is reported as > 19 µM.
For `Oc1ccc(O)c(-c2nc(-c3ccc(C(F)(F)F)cn3)n[nH]2)c1` [Compound 522, 4-Hydroxy-2-[5-(5-trifluoromethyl-pyridin-2-yl)-2H-[1,2,4]triazol-3-yl]-phenol], the EC50 was > 19 µM.
In the case of `COc1cccc(-c2nc(-c3ccc(C(F)(F)F)cn3)n[nH]2)c1` [Compound 523, 2-[5-(3-Methoxy-phenyl)-1H-[1,2,4]triazol-3-yl]-5-trifluoromethyl-pyridine], the EC50 is reported as > 19 µM.
In the case of `COc1ccc(F)c(-c2nc(-c3ccc(C(F)(F)F)cn3)n[nH]2)c1` [Compound 524, 2-[5-(2-Fluoro-5-methoxy-phenyl)-1H-[1,2,4]triazol-3-yl]-5-trifluoromethyl-pyridine], the EC50 is reported as > 19 µM.
With `Oc1ccc2ccccc2c1-c1nc(-c2ccc(C(F)(F)F)cn2)n[nH]1` [Compound 525, 1-[5-(5-trifluoromethyl-pyridin-2-yl)-2H-[1,2,4]triazol-3-yl]-naphthalen-2-ol] the EC50 was > 19 µM.
`FC(F)(F)c1ccc(-c2n[nH]c(-c3cccc(Br)c3)n2)nc1` [Compound 526, 2-[5-(3-Bromo-phenyl)-1H-[1,2,4]triazol-3-yl]-5-trifluoromethyl-pyridine] was tested, and the EC50 was > 19 µM.
With `FC(F)(F)c1ccc(-c2n[nH]c(-c3c(Cl)cccc3Cl)n2)nc1` [Compound 527, 2-[5-(2,6-Dichloro-phenyl)-1H-[1,2,4]triazol-3-yl]-5-trifluoromethyl-pyridine] the EC50 was > 19 µM.
In the case of `Fc1cc(Br)ccc1-c1nc(-c2ccc(C(F)(F)F)cn2)n[nH]1` [Compound 528, 2-[5-(4-Bromo-2-fluoro-phenyl)-1H-[1,2,4]triazol-3-yl]-5-trifluoromethyl-pyridine], the EC50 is reported as > 19 µM.
`COc1ccc(Br)cc1-c1nc(-c2ccc(C(F)(F)F)cn2)n[nH]1` [Compound 529, 2-[5-(5-Bromo-2-methoxy-phenyl)-1H-[1,2,4]triazol-3-yl]-5-trifluoromethyl-pyridine] was tested, and the EC50 was > 19 µM.
For `FC(F)(F)c1cccnc1-c1n[nH]c(-c2cccc3ccccc23)n1` [Compound 530, 2-(5-Naphthalen-1-yl-1H-[1,2,4]triazol-3-yl)-3-trifluoromethyl-pyridine], the EC50 was > 19 µM.
For `CC(C)(C)c1ccc(O)c(-c2nc(-c3ncccc3C(F)(F)F)n[nH]2)c1` [Compound 531, 4-tert-Butyl-2-[5-(3-trifluoromethyl-pyridin-2-yl)-2H-[1,2,4]triazol-3-yl]-phenol], the EC50 was > 19 µM.
In the case of `O=[N+]([O-])c1ccc(O)c(-c2nc(-c3ncccc3C(F)(F)F)n[nH]2)c1` [Compound 532, 4-Nitro-2-[5-(3-trifluoromethyl-pyridin-2-yl)-2H-[1,2,4]triazol-3-yl]-phenol], the EC50 is reported as > 19 µM.
`Oc1ccc(F)cc1-c1nc(-c2ncccc2C(F)(F)F)n[nH]1` [Compound 533, 4-Fluoro-2-[5-(3-trifluoromethyl-pyridin-2-yl)-2H-[1,2,4]triazol-3-yl]-phenol] was tested, and the EC50 was > 19 µM.
With `COc1ccc(O)c(-c2nc(-c3ncccc3C(F)(F)F)n[nH]2)c1` [Compound 534, 4-Methoxy-2-[5-(3-trifluoromethyl-pyridin-2-yl)-2H-[1,2,4]triazol-3-yl]-phenol] the EC50 was 2.3 µM.
For `Oc1ccc(Cl)cc1-c1nc(-c2ncccc2C(F)(F)F)n[nH]1` [Compound 535, 4-Chloro-2-[5-(3-trifluoromethyl-pyridin-2-yl)-2H-[1,2,4]triazol-3-yl]-phenol], the EC50 was 4.1 µM.
In the case of `CCOc1cccc(-c2nc(-c3ncccc3C(F)(F)F)n[nH]2)c1O` [Compound 536, 6-Ethoxy-2-[5-(3-trifluoromethyl-pyridin-2-yl)-2H-[1,2,4]triazol-3-yl]-phenol], the EC50 is reported as > 19 µM.
`Oc1cc(OCc2ccccc2)ccc1-c1nc(-c2ncccc2C(F)(F)F)n[nH]1` [Compound 537, 5-Benzyloxy-2-[5-(3-trifluoromethyl-pyridin-2-yl)-2H-[1,2,4]triazol-3-yl]-phenol] was tested, and the EC50 was > 19 µM.
With `Fc1cc(-c2nc(-c3ncccc3C(F)(F)F)n[nH]2)ccc1-c1ccccc1` [Compound 538, 2-[5-(2-Fluoro-biphenyl-4-yl)-1H-[1,2,4]triazol-3-yl]-3-trifluoromethyl-pyridine] the EC50 was > 19 µM.
With `Oc1ccc(Br)cc1-c1nc(-c2ncccc2C(F)(F)F)n[nH]1` [Compound 539, 4-Bromo-2-[5-(3-trifluoromethyl-pyridin-2-yl)-2H-[1,2,4]triazol-3-yl]-phenol] the EC50 was 0.35 µM.
For `Cc1ccc(O)c(-c2nc(-c3ncccc3C(F)(F)F)n[nH]2)c1` [Compound 540, 4-Methyl-2-[5-(3-trifluoromethyl-pyridin-2-yl)-2H-[1,2,4]triazol-3-yl]-phenol], the EC50 was > 19 µM.
For `COc1ccc(-c2nc(-c3ncccc3C(F)(F)F)n[nH]2)c(O)c1` [Compound 541, 5-Methoxy-2-[5-(3-trifluoromethyl-pyridin-2-yl)-2H-[1,2,4]triazol-3-yl]-phenol], the EC50 was > 19 µM.
For `Oc1ccccc1-c1nc(-c2ncccc2C(F)(F)F)n[nH]1` [Compound 542, 2-[5-(3-trifluoromethyl-pyridin-2-yl)-2H-[1,2,4]triazol-3-yl]-phenol], the EC50 was > 19 µM.
For `COc1cccc(-c2nc(-c3ncccc3C(F)(F)F)n[nH]2)c1O` [Compound 543, 6-Methoxy-2-[5-(3-trifluoromethyl-pyridin-2-yl)-2H-[1,2,4]triazol-3-yl]-phenol], the EC50 was > 19 µM.
With `O=[N+]([O-])c1cccc(-c2nc(-c3ncccc3C(F)(F)F)n[nH]2)c1` [Compound 544, 2-[5-(3-Nitro-phenyl)-1H-[1,2,4]triazol-3-yl]-3-trifluoromethyl-pyridine] the EC50 was > 19 µM.
In the case of `CCN(CC)c1ccc(-c2nc(-c3ncccc3C(F)(F)F)n[nH]2)c(O)c1` [Compound 545, 5-Diethylamino-2-[5-(3-trifluoromethyl-pyridin-2-yl)-2H-[1,2,4]triazol-3-yl]-phenol], the EC50 is reported as > 19 µM.
`Oc1ccc(O)c(-c2nc(-c3ncccc3C(F)(F)F)n[nH]2)c1` [Compound 546, 4-Hydroxy-2-[5-(3-trifluoromethyl-pyridin-2-yl)-2H-[1,2,4]triazol-3-yl]-phenol] was tested, and the EC50 was > 19 µM.
With `COc1cccc(-c2nc(-c3ncccc3C(F)(F)F)n[nH]2)c1` [Compound 547, 2-[5-(3-Methoxy-phenyl)-1H-[1,2,4]triazol-3-yl]-3-trifluoromethyl-pyridine] the EC50 was > 19 µM.
